Measurements as given in the NIST ThermoML archive (doi:10.1016/j.jct.2013.05.037).

What was measured:
[1] = mn = molality of the nth substance listed, in mol/kg; conditions: for surface tension liquid-gas: Pendant drop shape; for viscosity / speed of sound / mass density: 101 kPa, Liquid; for viscosity: Capillary tube (Ostwald / Ubbelohde) method; for speed of sound: Sing-around technique in a fixed-path interferometer; for mass density: Vibrating tube method
[2] = for surface tension liquid-gas: Pendant drop shape; for viscosity / mass density: 101.33 kPa, Liquid; for viscosity: Capillary tube (Ostwald / Ubbelohde) method; for mass density: Vibrating tube method

NCC(=O)O [2-aminoacetic acid] + O
surface tension liquid-gas [mN/m], [1]
Conditions | m1 = 0.0502 | m1 = 0.0755 | m1 = 0.1007 | m1 = 0.1261 | m1 = 0.1514
293.15 K | 72.83 | 72.89 | 72.77 | 72.66 | 72.54
298.15 K | 72.09 | 72.14 | 72.03 | 71.88 | 71.79
303.15 K | 71.29 | 71.35 | 71.24 | 70.95 | 70.84
308.15 K | 70.49 | 70.55 | 70.6 | 70.66 | 70.71

C[C@H](N)C(=O)O [(S)-2-aminopropanoic acid] + O
surface tension liquid-gas [mN/m], [1]
Conditions | m1 = 0.0503 | m1 = 0.0755 | m1 = 0.1009 | m1 = 0.1263 | m1 = 0.1518
293.15 K | 72.86 | 72.91 | 72.78 | 72.66 | 72.53
298.15 K | 72.07 | 72.12 | 72 | 71.88 | 71.76
303.15 K | 71.28 | 71.33 | 71.38 | 71.43 | 71.48
308.15 K | 70.46 | 70.53 | 70.58 | 70.63 | 70.68

N[C@@H](Cc1ccccc1)C(=O)O [L-phenylalanine] + O
surface tension liquid-gas [mN/m], [1]
Conditions | m1 = 0.0505 | m1 = 0.0759 | m1 = 0.1015 | m1 = 0.1273 | m1 = 0.1532
293.15 K | 72.38 | 71.94 | 70.99 | 70.56 | 70.14
298.15 K | 71.09 | 70.66 | 69.74 | 68.37 | 66.91
303.15 K | 70.83 | 69.91 | 68.53 | 66.61 | 64.53
308.15 K | 70.03 | 68.98 | 66.59 | 65.22 | 63.35

CCCCCCCC[N+](C)(CCCCCCCC)CCCCCCCC.[Cl-] [N-methyl-N,N-dioctyl-1-octanaminium chloride] + O
[1], m1 = 0.002
Conditions | mass density [kg/m3] | speed of sound [m/s] | surface tension liquid-gas [mN/m] | viscosity [mPa·s]
293.15 K | 998.54 | 1483.4 | 29.98 | 1.043
298.15 K | 997.375 | 1497.3 | 29.17 | 0.9291
303.15 K | 995.978 | 1510.7 | 28.93 | 0.8195
308.15 K | 994.348 | 1520.2 | 28.19 | 0.7465

CCCCCCCCCCCCCCCC[n+]1ccccc1.[Cl-] [cetylpyridinium chloride] + O
[1], m1 = 0.002
Conditions | mass density [kg/m3] | speed of sound [m/s] | surface tension liquid-gas [mN/m] | viscosity [mPa·s]
293.15 K | 998.567 | 1483.1 | 41.75 | 1.004
298.15 K | 997.407 | 1497.2 | 41.6 | 0.9033
303.15 K | 996.012 | 1509.4 | 41.57 | 0.8137
308.15 K | 994.387 | 1519.8 | 41.35 | 0.7557

O [water]
[2]
Conditions | mass density [kg/m3] | surface tension liquid-gas [mN/m] | viscosity [mPa·s]
293.15 K | 998.587 | 72.75 | 1.002
298.15 K | 997.425 | 71.97 | 0.8937
303.15 K | 996.04 | 71.18 | 0.8001
308.15 K | 994.425 | 70.38 | 0.7225

O [water] + C[C@H](N)C(=O)O
[1], m2 = 0
Conditions | surface tension liquid-gas [mN/m]
293.15 K | 72.75
298.15 K | 71.97
303.15 K | 71.18
308.15 K | 70.38

O [water] + NCC(=O)O
[1], m2 = 0
Conditions | surface tension liquid-gas [mN/m]
293.15 K | 72.75
298.15 K | 71.97
303.15 K | 71.18
308.15 K | 70.38

O [water] + N[C@@H](Cc1ccccc1)C(=O)O
[1], m2 = 0
Conditions | surface tension liquid-gas [mN/m]
293.15 K | 72.75
298.15 K | 71.97
303.15 K | 71.18
308.15 K | 70.38
